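Dose response: 5 concentrations. Exposure: 48 h. Format: 96-well plates. Endpoint: linear interpolation; highest concentration if not reached. TGI: total growth inhibition.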
Assays:
Experiment in all cases: NCI anticancer screen, dose series, 48 h
[1] = tested on: HCT-116 colon
[2] = tested on: HCT-15 colon
[3] = tested on: IGROV1 ovarian
[4] = tested on: K-562 leukemia
[5] = tested on: MCF7 breast
[6] = tested on: MDA-MB-231 breast
[7] = tested on: MOLT-4 leukemia
[8] = tested on: NCI-H226 lung
[9] = tested on: NCI-H23 lung
[10] = tested on: OVCAR-4 ovarian
[11] = tested on: OVCAR-8 ovarian
[12] = tested on: RPMI-8226 leukemia
[13] = tested on: SK-MEL-2 melanoma
[14] = tested on: SK-MEL-5 melanoma
[15] = tested on: SW-620 colon
[16] = tested on: U251 CNS
[17] = tested on: UACC-257 melanoma
[18] = tested on: UACC-62 melanoma
[19] = tested on: BT-549 breast
[20] = tested on: RXF 393 renal

Structure (SMILES) | TGI [1] [µM] | TGI [2] [µM] | TGI [3] [µM] | TGI [4] [µM] | TGI [5] [µM] | TGI [6] [µM] | TGI [7] [µM] | TGI [8] [µM] | TGI [9] [µM] | TGI [10] [µM] | TGI [11] [µM] | TGI [12] [µM] | TGI [13] [µM] | TGI [14] [µM] | TGI [15] [µM] | TGI [16] [µM] | TGI [17] [µM] | TGI [18] [µM] | TGI [19] [µM] | TGI [20] [µM]
CC(C)COP(C)(=O)C(N)(C(F)(F)F)C(F)(F)F (stereo unspecified) | > 100 | > 100 | > 100 | > 100 | > 100 | > 100 | > 100 | > 100 | > 100 | > 100 | > 100 | > 100 | > 100 | > 100 | > 100 | > 100 | > 100 | > 100 |  | 
CN1CCN(c2ccc3[nH]c(C4=C(O)C(=O)[C@@H]5C(=C4O)N=C(CO)N5C)nc3n2)CC1 | > 100 | > 100 | > 100 | > 100 |  | > 100 | > 100 | > 100 | > 100 | > 100 | > 100 | > 100 |  |  | > 100 | > 100 | > 100 | > 100 | > 100 | > 100
CCCn1c(=O)c2nn3c(=O)n(CCC)c(=O)c3nn2c1=O | > 100 | > 100 | > 100 | > 100 | > 100 |  | > 100 | > 100 | > 100 | > 100 | > 100 | > 100 | > 100 | > 100 | > 100 | > 100 | > 100 | > 100 | > 100 | > 100
O=C(Cc1ccccc1)NN1C(=O)C(Cl)C1c1cccc([N+](=O)[O-])c1 (stereo unspecified) | > 84.2 | > 100 | 19.3 | 54 |  |  | 45 | > 90.1 | > 92.2 | > 92.9 | > 100 | 47.8 | > 73.8 | > 100 | > 89.1 | > 100 | > 100 | > 100 |  | 93
O=C1CCCC2=C1CC1=C(CCCC1=O)N2c1ccc([N+](=O)[O-])cc1 |  | > 100 | > 100 | > 100 | > 100 |  | > 100 | > 100 | > 100 | > 100 | > 100 | > 100 |  | > 100 | > 100 | > 100 |  | > 100 | > 100 | > 100
Cc1ccc(C(=O)N2CCCCC2)cc1N=NN(C)C | > 100 | > 100 | > 100 | > 100 |  |  | > 100 | > 100 | > 100 | > 100 | > 100 | > 100 | > 100 | > 100 | > 100 |  | > 100 | > 100 |  | 
O=C1C=CC(=O)c2cc(Sc3ccccc3)c(=O)c(Sc3ccccc3)cc21 | > 100 | > 100 | > 100 | 61.9 |  |  | > 100 | > 100 | > 100 | > 100 | > 100 | > 100 | > 100 | > 100 | > 100 | > 100 | > 100 | 81.6 |  | 51.2
CCCCOC(=O)NC(Nc1ccc(S(=O)(=O)Nc2ncccn2)cc1)(C(F)(F)F)C(F)(F)F | > 100 | > 100 | > 100 | > 100 |  | > 100 | > 100 | > 100 | > 100 | > 100 | > 100 | > 100 |  | > 100 | > 100 |  |  | > 100 |  | > 100
O=P(CCOc1ccccc1OCCP(=O)(c1ccccc1)c1ccc2c(c1)OCCOCCOCCOCCO2)(c1ccccc1)c1ccc2c(c1)OCCOCCOCCOCCO2 (stereo unspecified) | > 100 | > 100 | > 100 | > 100 |  |  | > 100 | > 100 | > 100 | > 100 | > 100 | > 100 | > 100 | > 100 | > 100 | > 100 | > 100 | > 100 |  | > 100
CC1=NC=C(O)c2ccccc2O1 | > 100 | > 100 | > 100 | > 100 |  |  | > 100 |  | > 100 | > 100 | > 100 | > 100 | > 100 |  | > 100 | > 100 | > 100 | > 100 |  | > 100
C/C(=C\CNc1ncnc2c1ncn2CCC(=O)OC(C)(C)C)CO | > 100 |  | > 100 | > 100 | > 100 | > 100 | > 100 | > 100 | > 100 | > 100 | > 100 | > 100 |  | > 100 | > 100 |  | > 100 | > 100 |  | > 100
CC(C)OC(=O)NNc1cccc(Cl)c1 | > 100 | > 100 |  | > 100 | > 100 | > 100 | > 100 | > 100 | > 100 |  | > 100 | > 100 | > 100 | > 100 | > 100 | > 100 | > 100 | > 100 |  | > 100
CN(C)CCN(C)C(=O)C1CCCN1C(=O)OCc1ccccc1 (stereo unspecified) | > 100 | > 100 | > 100 | > 100 |  |  | > 100 | > 100 | > 100 | > 100 | > 100 | > 100 | > 100 | > 100 | > 100 | > 100 | > 100 | > 100 |  | > 100
CCCCCC#COC1CC(C)CC[C@@H]1C(C)C (stereo partly specified) | > 100 | > 100 | 79.5 | > 100 |  |  |  | > 100 | > 100 | > 100 | > 100 | 69.7 | > 100 | > 100 | 34.1 | > 100 | > 100 | > 100 |  | 86.9
O=C(CCN1CCC(CCO)CC1)Nc1ccc2c(c1)C(=O)c1ccc(NC(=O)CCN3CCC(CCO)CC3)cc1C2=O | 31.2 | > 100 | > 100 | 42.6 |  |  | 24.5 | 76.5 | > 100 | 63.2 | 61.6 | 88.1 | 13.6 | > 100 | 29.1 | 23.8 | > 100 | 38.4 |  | > 100
CC1CCC2CC1NC(=O)CCOCCC(=O)NC2(C)C (stereo unspecified) | > 100 | > 100 | > 100 | > 100 | > 100 | > 100 | > 100 |  | > 100 | > 100 | > 100 |  |  | > 100 | > 100 | > 100 | > 100 | > 100 | > 100 | 
CCC(c1ccc(OC)cc1)C1NC(=S)NC1=O (stereo unspecified) | > 50 | > 50 | > 50 | > 50 | > 50 | > 50 | > 50 | > 50 | > 50 | > 50 | > 50 | > 50 | > 50 | > 50 | > 50 | > 50 | > 50 |  |  | > 50
COc1ccc2[nH]c3c4c(cc(-c5ccccc5)c3c2c1)C(=O)N(c1ccccc1)C4=O | > 100 | > 100 | > 100 | > 100 |  |  | > 100 | > 100 | 98.6 | 3.56 | 39.6 | > 100 | > 100 | > 100 | > 100 | 36.7 | > 100 | > 90.6 |  | 69.7
Oc1c(Cl)c(Cl)c(O)c(CCNc2nccs2)c1Cl | 23.6 | 31 | 17.9 | > 100 | 10.2 | 2.16 | 94.3 |  | 37.9 | > 100 | 47.2 |  | 48.4 | 8.71 | 7.72 | 66.1 | 58.7 | 40.5 |  | 20.3
C/C(=N\O)C1CC2C=C(C#N)C1N(Cc1ccccc1)C2 (stereo unspecified) | > 100 | > 100 |  | > 100 | > 100 | > 100 | > 100 | > 100 | > 100 |  | > 100 | > 100 |  | > 100 | > 100 | > 100 | > 100 | > 100 |  | > 100
CC(=O)Oc1ccc(Nn2c3ccccc3c3ccccc32)c(C)c1 | > 100 | 82.4 | 94.2 | > 100 |  |  | 77.7 |  | > 100 |  | 78.6 | 58.5 | > 100 | > 100 | 79.9 | > 100 | > 100 | > 100 |  | 80.4
CC1(C)SCc2nc3ccccc3n21 | > 100 | > 100 | > 100 | > 100 | > 100 | > 100 | > 100 | > 100 | > 100 | > 100 | > 100 | > 100 | > 100 | > 100 | > 100 | > 100 | > 100 | > 100 |  | > 100
CN1C(C)(C)CC(=O)C(Br)C1(C)C (stereo unspecified) |  | > 100 | > 100 | > 100 | > 100 |  | > 100 | > 100 | > 100 | > 100 | > 100 | > 100 | > 100 | > 100 | > 100 | > 100 | > 100 | > 100 | > 100 | 
O=C(Cc1ccccc1)N/N=C(/c1nc2ccc([N+](=O)[O-])cc2[nH]c1=O)C(O)c1ccc(C(O)/C(=N/NC(=O)Cc2ccccc2)c2nc3ccc([N+](=O)[O-])cc3[nH]c2=O)cc1 (stereo unspecified) | > 100 | > 100 | > 100 | > 100 |  |  |  | > 100 | > 100 | > 100 | > 100 | > 100 | > 100 |  | > 100 |  | > 100 | > 100 |  | > 100
CN(C)CC1CCCCCCCCCCCCC(CN(C)C)C1=O (stereo unspecified) | 16.8 | 34.8 | 33.1 |  |  |  | 20.8 | 23.9 | 32 | 29.4 | 22.4 |  | 26 | 27.8 | 20.6 | 28 | 29.9 | 26.1 |  | 24
C/C1=C/C[C@@H](/C(C)=C/c2csc(C)n2)OC(=O)C[C@H](O)C(C)(C)C(=O)[C@H](C)[C@@H](O)[C@@H](C)CCC1 | 0.173 | 0.237 | 0.215 |  | 0.231 |  | 0.394 | 0.214 | 0.169 | 0.472 | 0.295 | 0.217 | 0.188 | 0.167 | 0.24 | 0.169 |  | 0.247 | 0.198 | < 0.0001
O=[N+]([O-])c1ccc(CN=C2NNS(=O)(=O)c3ccccc32)cc1 | > 100 | > 100 | > 100 | > 100 |  |  | > 100 | > 100 |  | > 100 | > 100 | > 100 | > 100 | > 100 | > 100 | > 100 | > 100 | > 100 |  | > 100
